Tests used:
SMARCA4-HiBiT = target: T1, SMARCA4-HiBiT (Homo sapiens, UniProt P51532); experiment: SMARCA4 HiBiT degradation assay in HeLa cells; type: cell-based; details: 18 hours incubation; for DC50: read-out: HeLa-HiBit-SM4 DC50; for Dmax: HeLa, read-out: HeLa-HiBit-SM4 Dmax (%)
T1 construct: SMARCA4-HiBiT knock-in Hela monoclonal cell (CS3023226); host or cells: HeLa monoclonal knock-in line (CRISPR HiBiT knock-in at the endogenous locus, heterozygous)
Summary of the method: (§1)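 HeLa monoclonal lines with heterozygous HiBiT knock-in were seeded at 2500 cells/well in EMEM with 10% FBS and treated with compound for 18 h at 37 °C. Remaining tagged protein was measured by Nano-Glo HiBiT lytic luminescence after 30–60 min at RT, and values came from curve fitting.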

SMARCA2-HiBiT = target: T2, SMARCA2-HiBiT (Homo sapiens, UniProt P51531); experiment: SMARCA2 HiBiT degradation assay in HeLa cells; type: cell-based; details: 18 hours incubation; for DC50: read-out: HeLa_HiBit-SM2 DC50; for Dmax: HeLa, read-out: HeLa-HiBit-SM2 Dmax (%)
T2 construct: SMARCA2-HiBiT knock-in Hela monoclonal cell (CS302366); host or cells: HeLa monoclonal knock-in line (CRISPR HiBiT knock-in at the endogenous locus, heterozygous)
Summary of the method: as §1

T1 sequence (P51532 whole entry): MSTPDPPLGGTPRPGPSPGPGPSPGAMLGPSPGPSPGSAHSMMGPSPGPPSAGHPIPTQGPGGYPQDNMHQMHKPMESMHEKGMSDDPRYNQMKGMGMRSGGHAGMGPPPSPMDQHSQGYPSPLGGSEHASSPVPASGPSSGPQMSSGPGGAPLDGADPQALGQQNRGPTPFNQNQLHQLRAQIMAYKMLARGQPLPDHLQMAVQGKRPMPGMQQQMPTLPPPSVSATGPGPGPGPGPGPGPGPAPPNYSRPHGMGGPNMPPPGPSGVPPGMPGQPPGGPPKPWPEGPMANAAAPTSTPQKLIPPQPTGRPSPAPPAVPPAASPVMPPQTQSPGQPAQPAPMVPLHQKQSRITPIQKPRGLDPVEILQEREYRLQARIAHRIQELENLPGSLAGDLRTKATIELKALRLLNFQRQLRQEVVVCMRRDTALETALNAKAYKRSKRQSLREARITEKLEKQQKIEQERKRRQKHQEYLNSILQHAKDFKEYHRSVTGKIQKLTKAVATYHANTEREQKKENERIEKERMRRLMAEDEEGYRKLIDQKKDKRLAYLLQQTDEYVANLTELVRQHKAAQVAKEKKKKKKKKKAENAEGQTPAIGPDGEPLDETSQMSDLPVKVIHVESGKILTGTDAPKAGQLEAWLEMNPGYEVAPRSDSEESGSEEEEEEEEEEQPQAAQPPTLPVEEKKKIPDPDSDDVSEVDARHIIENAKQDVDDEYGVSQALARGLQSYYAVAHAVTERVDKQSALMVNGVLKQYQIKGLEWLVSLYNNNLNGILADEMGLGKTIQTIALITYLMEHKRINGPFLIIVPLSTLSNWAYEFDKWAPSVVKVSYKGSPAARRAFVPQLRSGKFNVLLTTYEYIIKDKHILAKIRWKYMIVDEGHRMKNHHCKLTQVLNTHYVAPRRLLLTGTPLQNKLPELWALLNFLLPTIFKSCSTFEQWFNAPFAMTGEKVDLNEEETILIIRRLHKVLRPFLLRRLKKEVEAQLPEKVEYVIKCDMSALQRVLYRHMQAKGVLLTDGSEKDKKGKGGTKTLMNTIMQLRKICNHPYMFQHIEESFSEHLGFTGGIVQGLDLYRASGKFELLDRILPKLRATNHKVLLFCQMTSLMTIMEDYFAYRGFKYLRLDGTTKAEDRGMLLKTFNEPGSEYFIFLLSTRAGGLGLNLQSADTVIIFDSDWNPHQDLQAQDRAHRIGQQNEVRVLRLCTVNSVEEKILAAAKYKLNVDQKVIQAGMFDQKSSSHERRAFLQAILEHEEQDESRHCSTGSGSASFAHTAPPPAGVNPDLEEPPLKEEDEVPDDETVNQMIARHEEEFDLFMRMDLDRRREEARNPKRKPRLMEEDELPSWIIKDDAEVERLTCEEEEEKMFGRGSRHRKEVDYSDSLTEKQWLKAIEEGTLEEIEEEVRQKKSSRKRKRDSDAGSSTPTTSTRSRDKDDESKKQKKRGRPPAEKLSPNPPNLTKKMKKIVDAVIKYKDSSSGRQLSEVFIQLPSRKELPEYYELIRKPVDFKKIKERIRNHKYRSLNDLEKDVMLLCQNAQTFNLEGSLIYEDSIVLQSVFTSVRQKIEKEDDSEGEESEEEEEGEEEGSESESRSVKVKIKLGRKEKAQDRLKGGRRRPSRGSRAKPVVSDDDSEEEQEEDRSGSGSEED
T2 sequence (P51531 whole entry): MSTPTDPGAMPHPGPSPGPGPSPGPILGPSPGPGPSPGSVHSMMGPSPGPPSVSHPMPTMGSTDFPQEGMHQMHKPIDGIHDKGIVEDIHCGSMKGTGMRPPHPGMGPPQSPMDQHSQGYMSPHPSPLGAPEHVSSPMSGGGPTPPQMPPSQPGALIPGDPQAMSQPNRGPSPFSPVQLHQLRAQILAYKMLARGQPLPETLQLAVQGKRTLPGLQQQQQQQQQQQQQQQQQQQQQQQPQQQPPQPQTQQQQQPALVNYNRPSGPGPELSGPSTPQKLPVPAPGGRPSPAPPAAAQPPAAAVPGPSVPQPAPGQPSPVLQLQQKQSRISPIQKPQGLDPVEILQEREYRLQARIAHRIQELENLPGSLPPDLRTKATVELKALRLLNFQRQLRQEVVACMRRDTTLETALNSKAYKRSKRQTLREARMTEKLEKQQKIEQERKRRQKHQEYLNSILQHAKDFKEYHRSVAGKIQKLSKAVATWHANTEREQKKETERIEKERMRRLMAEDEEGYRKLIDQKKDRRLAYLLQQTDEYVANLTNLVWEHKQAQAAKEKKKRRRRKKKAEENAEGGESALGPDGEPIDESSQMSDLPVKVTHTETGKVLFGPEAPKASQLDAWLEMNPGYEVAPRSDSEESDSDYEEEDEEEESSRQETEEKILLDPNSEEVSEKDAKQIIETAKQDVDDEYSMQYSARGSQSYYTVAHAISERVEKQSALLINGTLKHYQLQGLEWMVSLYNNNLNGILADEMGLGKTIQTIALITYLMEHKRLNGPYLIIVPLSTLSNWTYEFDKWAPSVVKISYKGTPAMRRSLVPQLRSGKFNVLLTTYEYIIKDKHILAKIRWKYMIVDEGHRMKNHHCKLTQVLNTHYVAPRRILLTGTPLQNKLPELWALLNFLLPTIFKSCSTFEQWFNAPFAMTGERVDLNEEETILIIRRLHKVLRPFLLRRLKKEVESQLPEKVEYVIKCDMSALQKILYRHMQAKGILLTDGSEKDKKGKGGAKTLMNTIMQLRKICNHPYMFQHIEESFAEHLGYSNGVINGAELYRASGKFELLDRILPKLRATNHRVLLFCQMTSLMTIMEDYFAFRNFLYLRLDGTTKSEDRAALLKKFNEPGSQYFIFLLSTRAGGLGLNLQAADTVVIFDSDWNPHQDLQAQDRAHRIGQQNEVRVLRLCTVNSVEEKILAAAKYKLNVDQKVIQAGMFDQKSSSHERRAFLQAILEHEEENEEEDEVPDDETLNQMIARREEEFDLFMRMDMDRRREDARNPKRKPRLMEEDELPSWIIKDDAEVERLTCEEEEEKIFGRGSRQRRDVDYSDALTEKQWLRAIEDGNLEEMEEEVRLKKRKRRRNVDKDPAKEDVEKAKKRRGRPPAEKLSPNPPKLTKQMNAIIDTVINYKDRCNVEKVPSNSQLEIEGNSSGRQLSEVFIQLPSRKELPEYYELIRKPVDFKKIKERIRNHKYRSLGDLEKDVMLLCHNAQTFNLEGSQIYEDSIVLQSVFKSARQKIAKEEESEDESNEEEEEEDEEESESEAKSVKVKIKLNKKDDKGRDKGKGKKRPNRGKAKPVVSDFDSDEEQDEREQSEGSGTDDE

SMILES	DC50 (SMARCA4-HiBiT)	Dmax (SMARCA4-HiBiT)	DC50 (SMARCA2-HiBiT)	Dmax (SMARCA2-HiBiT)	HeLa-HiBit-SM4 Dmax (%) (SMARCA4-HiBiT)	HeLa-HiBit-SM2 Dmax (%) (SMARCA2-HiBiT)
O=C1CCC(N2C(=O)c3ccc(N4CCC(CN5CCC(N6CCN7c8cc(-c9ccccc9O)nnc8NC[C@H]7C6)CC5)CC4)cc3C2=O)C(=O)N1 (stereo partly drawn) [Example 30, 2-(2,6-dioxopiperidin-3-yl)-5-(4-((4-((S)-2-(2-hydroxyphenyl)-5,6,6a,7,9,10-hexahydro-8H-pyrazino[1′,2′:4,5]pyrazino[2,3-c]pyridazin-8-yl)piperidin-1-yl)methyl)piperidin-1-yl)isoindoline-1,3-dione]	< 0.01 µM	> 85%	< 0.01 µM	> 85%	–	–
C[C@@H]1C[C@H](CN2CCC(CN3CCN4c5cc(-c6ccccc6O)nnc5NC[C@H]4C3)CC2)CCN1c1cc2c(cc1F)C(=O)N(C1CCC(=O)NC1=O)C2=O (stereo partly drawn) [Example 174, 2-(2,6-dioxopiperidin-3-yl)-5-fluoro-6-[(2R,4R)-4-[[4-[[(10S)-4-(2-hydroxyphenyl)-1,5,6,8,12-pentazatricyclo[8.4.0.02,7]tetradeca-2,4,6-trien-12-yl]methyl]piperidin-1-yl]methyl]-2-methylpiperidin-1-yl] isoindole-1,3-dione]	< 0.01 µM	> 85%	< 0.01 µM	> 85%	–	–
O=C1CCC(N2C(=O)c3ccc(N4CCC(NC56CC(CN7CCN8c9cc(-c%10ccccc%10O)nnc9NC[C@H]8C7)(C5)C6)CC4)cc3C2=O)C(=O)N1 (stereo partly drawn) [Example 135, 2-(2,6-dioxopiperidin-3-yl)-5-(4-((3-(((S)-2-(2-hydroxyphenyl)-5,6,6a,7,9,10-hexahydro-8H-pyrazino[1′,2′:4,5]pyrazino[2,3-c]pyridazin-8-yl)methyl)bicyclo[1.1.1]pentan-1-yl)amino)piperidin-1-yl)isoindoline-1,3-dione]	< 0.01 µM	50 to 75%	< 0.01 µM	75 to 85%	–	–
CCC1CN(CC2CCN(c3ccc4c(c3)C(=O)N(C3CCC(=O)NC3=O)C4)CC2)CCN1C(=O)N1CCN2c3cc(-c4ccccc4O)nnc3NC[C@H]2C1 (stereo partly drawn) [Example 271, 3-(6-(4-((3-ethyl-4-((S)-2-(2-hydroxyphenyl)-6,6a,7,8,9,10-hexahydro-5H-pyrazino[1′,2′:4,5]pyrazino[2,3-c]pyridazine-8-carbonyl)piperazin-1-yl)methyl)piperidin-1-yl)-1-oxoisoindolin-2-yl)piperidine-2,6-dione]	< 0.01 µM	–	< 0.01 µM	–	–	–
O=C1CCC(N2C(=O)c3ccc(N4CC[C@@H](CN5C[C@@H]6[C@H](C5)[C@H]6CN5CCN6c7cc(-c8ccccc8O)nnc7NC[C@H]6C5)[C@H](F)C4)cc3C2=O)C(=O)N1 (stereo partly drawn) [Example 201, 2-(2,6-dioxopiperidin-3-yl)-5-[(3S,4S)-3-fluoro-4-[[(1S,5R)-6-[[(10S)-4-(2-hydroxyphenyl)-1,5,6,8,12-pentazatricyclo [8.4.0.02,7]tetradeca-2(7),3,5-trien-12-yl]methyl]-3-azabicyclo[3.1.0]hexan-3-yl]methyl]piperidin-1-yl]isoindole-1,3-dione]	< 0.01 µM	–	< 0.01 µM	–	A (A=Dmax>85%)	A (A=Dmax>85%)
O=C1CCC(N2C(=O)c3ccc(N4CCCC(N5CCC(CN6CCN7c8cc(-c9ccccc9O)nnc8NC[C@H]7C6)CC5)C4)cc3C2=O)C(=O)N1 (stereo partly drawn) [Example 218, 2-(2,6-dioxopiperidin-3-yl)-5-(4-(((S)-2-(2-hydroxyphenyl)-5,6,6a,7,9,10-hexahydro-8H-pyrazino[1′,2′:4,5]pyrazino[2,3-c]pyridazin-8-yl)methyl)-[1,3′-bipiperidin]-1′-yl) isoindoline-1,3-dione]	< 0.01 µM	75 to 85%	< 0.01 µM	> 85%	–	–
O=C1CCC(N2C(=O)c3ccc(N4CCC(CN5CCC(NC6CCN7c8cc(-c9ccccc9O)nnc8NCC7C6)CC5)CC4)cc3C2=O)C(=O)N1 (stereo not shown) [Example 253, 2-(2,6-dioxopiperidin-3-yl)-5-(4-((4-((2-(2-hydroxyphenyl)-6,6a,7,8,9,10-hexahydro-5H-pyrido[1′,2′:4,5]pyrazino[2,3-c]pyridazin-8-yl)amino)piperidin-1-yl)methyl)piperidin-1-yl) isoindoline-1,3-dione]	0.01 to 0.1 µM	50 to 75%	< 0.01 µM	50 to 75%	–	–
CC1(CN2C[C@@H]3[C@@H](CN4CCN5c6cc(-c7ccccc7O)nnc6NC[C@H]5C4)[C@@H]3C2)CN(c2ccc3c(c2)C(=O)N(C2CCC(=O)NC2=O)C3=O)CCO1 (stereo partly drawn) [Example 59, 2-(2,6-dioxopiperidin-3-yl)-5-(2-(((1R,5S,6s)-6-(((S)-2-(2-hydroxyphenyl)-5,6,6a,7,9,10-hexahydro-8H-pyrazino[1′,2′:4,5]pyrazino[2,3-c]pyridazin-8-yl)methyl)-3-azabicyclo[3.1.0]hexan-3-yl)methyl)-2-methylmorpholino)isoindoline-1,3-dione]	0.01 to 0.1 µM	75 to 85%	< 0.01 µM	75 to 85%	–	–
CN(CCN1CCC(C(=O)N2CCN3c4cc(-c5ccccc5O)nnc4NC[C@H]3C2)CC1)c1ccc2c(c1)C(=O)N(C1CCC(=O)NC1=O)C2=O (stereo partly drawn) [Example 222, 2-(2,6-dioxopiperidin-3-yl)-5-((2-(4-((S)-2-(2-hydroxyphenyl)-6,6a,7,8,9,10-hexahydro-5H-pyrazino[1′,2′:4,5]pyrazino[2,3-c]pyridazine-8-carbonyl)piperidin-1-yl)ethyl)(methyl)amino) isoindoline-1,3-dione]	0.1 to 1 µM	≤ 50%	< 0.01 µM	50 to 75%	–	–
O=C1CCC(N2C(=O)c3ccc(N4CCC(O)(CN5CCC(CN6CCN7c8cc(-c9ccccc9O)nnc8NC[C@H]7C6)CC5)CC4)cc3C2=O)C(=O)N1 (stereo partly drawn) [Example 50, 2-(2,6-dioxopiperidin-3-yl)-5-(4-hydroxy-4-((4-(((S)-2-(2-hydroxyphenyl)-5,6,6a,7,9,10-hexahydro-8H-pyrazino[1′,2′:4,5]pyrazino[2,3-c]pyridazin-8-yl)methyl)piperidin-1-yl)methyl)piperidin-1-yl)isoindoline-1,3-dione]	< 0.01 µM	75 to 85%	< 0.01 µM	> 85%	–	–
O=C1CCC(N2C(=O)c3ccc(N4CCC(CN5CCC(CN6CCN7c8cc(-c9ccccc9O)nnc8NC[C@H]7C6)CC5)C(F)(F)C4)cc3C2=O)C(=O)N1 (stereo partly drawn) [Example 181, 5-[3,3-difluoro-4-[[4-[[(10S)-4-(2-hydroxyphenyl)-1,5,6,8,12-pentazatricyclo[8.4.0.02,7]tetradeca-2,4,6-trien-12-yl]methyl]piperidin-1-yl]mehtyl]piperidin-1-yl]-2-(2,6-dioxopiperidin-3-yl) isoindoline-1,3-dione]	< 0.01 µM	> 85%	< 0.01 µM	> 85%	–	–
O=C1CCC(N2C(=O)c3ccc(N4CCC(CN5CC6CC(CN7CCN8c9cc(-c%10ccccc%10O)nnc9NC[C@H]8C7)C6C5)C(F)(F)C4)cc3C2=O)C(=O)N1 (stereo partly drawn) [Example 188, 5-[3,3-difluoro-4-[[6-[[(10S)-4-(2-hydroxyphenyl)-1,5,6,8,12-pentazatricyclo[8.4.0.02,7]tetradeca-2(7),3,5-trien-12-yl]methyl]-3-azabicyclo[3.2.0]heptan-3-yl]methyl]piperidin-1-yl]-2-(2,6-dioxopiperidin-3-yl)isoindole-1,3-dione]	< 0.01 µM	75 to 85%	< 0.01 µM	> 85%	–	–
O=C1CCC(N2C(=O)c3ccc(N4CCC(N[C@H]5C[C@@H](CN6CCN7c8cc(-c9ccccc9O)nnc8NC[C@H]7C6)C5)CC4)cc3C2=O)C(=O)N1 (stereo partly drawn) [Example 76, 2-(2,6-dioxopiperidin-3-yl)-5-(4-(((1R,3s)-3-(((S)-2-(2-hydroxyphenyl)-5,6,6a,7,9,10-hexahydro-8H-pyrazino[1′,2′:4,5]pyrazino[2,3-c]pyridazin-8-yl)methyl)cyclobutyl)amino)piperidin-1-yl)isoindoline-1,3-dione]	< 0.01 µM	> 85%	< 0.01 µM	> 85%	–	–
O=C1CC[C@@H](N2Cc3cc(OCCN4CCC(N5CCN6c7cc(-c8ccccc8O)nnc7NC[C@H]6C5)CC4)ccc3C2=O)C(=O)N1 [Example 239, (R)-3-(5-(2-(4-((S)-2-(2-hydroxyphenyl)-5,6,6a,7,9,10-hexahydro-8H-pyrazino[1′,2′:4,5]pyrazino[2,3-c]pyridazin-8-yl)piperidin-1-yl)ethoxy)-1-oxoisoindolin-2-yl)piperidine-2,6-dione]	< 0.01 µM	50 to 75%	< 0.01 µM	> 85%	–	–
CC1(CN2C[C@@H]3[C@@H](CN4CCN5c6cc(-c7ccccc7O)nnc6NC[C@H]5C4)[C@@H]3C2)CCN(c2ccc3c(c2)C(=O)N(C2CCC(=O)NC2=O)C3=O)C1 (stereo partly drawn) [Example 151, 2-(2,6-dioxopiperidin-3-yl)-5-(3-(((1R,5S,6r)-6-(((S)-2-(2-hydroxyphenyl)-5,6,6a,7,9,10-hexahydro-8H-pyrazino[1′,2′:4,5]pyrazino[2,3-c]pyridazin-8-yl)methyl)-3-azabicyclo[3.1.0]hexan-3-yl)methyl)-3-methylpyrrolidin-1-yl)isoindoline-1,3-dione]	0.01 to 0.1 µM	50 to 75%	< 0.01 µM	75 to 85%	–	–

From US12448389B2, “BRM targeting compounds and associated methods of use” (Prelude Therapeutics Incorporated, priority 2020, dated 2025)
